Experimental findings from patent US12616713B2, “Methods for enhancing vascular density” (priority 2016, dated 2026) are described below.

The assay relates to MLECs from WT and ESKO mice. Put plainly: Spheroid sprouting assay, MLECs. In kind it is cell-based, mouse. To be noted: WT versus ESKO MLECs, C2C12 CM, NMN 0.5 mM. On the procedure: ECs spheroids were generated as described previously (Korff and Augustin, 1998, J Cell Biol 143, 1341-1352). ECs (1000 cells per spheroid) were suspended in EGM-2 medium containing 20% methocel (viscosity: 4000 cps, Sigma) and seeded in non-adherent round-bottom 96-well plates (Sigma). Under these conditions all suspended cells contributed to the formation of a single spheroid. The spheroids were harvested after 24 h embedded into collagen gels. Sprouting was initiated by adding C2C12 CM or EBM-2 medium containing VEGF (50 ng/mL). NMN (0.5 mM), NaHS (0.1 mM), DAPT (20 μM, Cayman Chemical) or SU5416 (10 μM, Sigma) were added to the media wherever mentioned. Angiogenic activity was quantified by measuring the sprout length that had grown out of each spheroid analyzing 8-10 spheroids per group.

Turning to `NC(=O)c1ccc[n+]([C@@H]2O[C@H](COP(=O)([O-])O)[C@@H](O)[C@H]2O)c1` [NMN, nicotinamide mononucleotide], the “ability of NMN to stimulate spheroid sprouting, dependence on SIRT1” value was “SIRT1-dependent”.
